Assay results published in publication PMC10331583, “Control of fibrosis with enhanced safety via asymmetric inhibition of prolyl‐tRNA synthetase 1” (EMBO Molecular Medicine, 2023).
“And” between values parts separate entries of the source, which are not always exact repeats. Identical values can stand only once. Like-named read-outs stand apart in the source and are kept apart here.

Columns and labels:
[1] = test system: TNT Quick Coupled Transcription/Translation System (luciferase synthesis); assay type: biochemical
WI‐26 VA4 cells [2] = experiment: Puromycin incorporation assay; assay type: cell-based, human; conditions: for activity at 0.001 µM: WI26VA4, 1 nM; for activity at 0.01 µM: WI26VA4, 10 nM; for activity at 0.03 µM: WI26VA4, 30 nM; for activity at 0.1 µM: WI26VA4, 100 nM; for activity at 1 µM: WI26VA4, 1000 nM; for activity at 3 µM: WI26VA4, 3000 nM
Procedure, shortened: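 WI‐26 VA4 cell lysates prepared in carbonate-bicarbonate buffer with protease inhibitor; 400 ng protein coated on ELISA plates 18 h at 4°C. Puromycin incorporated into proteins detected by antibody ELISA, absorbance 450 nm with 620 nm reference; outlier values excluded based on replicates and adjacent concentrations.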

[3] = CellTiter‐Glo assay (cytotoxicity); conditions: human, WI-26 VA4 cells, CC50 (CellTiter-Glo), 72 h (Fig 5B)
Method: (§1) After 24 h, the cells were incubated with various concentrations of compounds for 48 h. The level of ATP as a measure of cell viability was determined using a CellTiter‐Glo® luminescent cell viability assay kit (Promega, G7571) following the manufacturer's instructions.
(§2) WI‐26 VA4 cells were seeded at 1.2 × 10^4 cells/well in 96‐well white plates. After 24 h, the cells were incubated with the indicated concentrations of compounds for 72 h. The viability was determined as described above.

WI‐26 VA4 cells [4] = experiment: CellTiter‐Glo assay (cytotoxicity); conditions: Homo sapiens; for activity at 0.01 µM: WI26VA4, read-out: CellTiter-Glo % of control, 10 nM; for activity at 0.1 µM: WI26VA4, read-out: CellTiter-Glo % of control, 100 nM; for activity at 1 µM: WI26VA4, read-out: CellTiter-Glo % of control, 1000 nM
Method: as §1, §2

[5] = Homo sapiens, read-out: Puromycin, % of control, average
[6] = Homo sapiens, read-out: Puromycin, % of control, single replicate

For `O=C(CC1NCCCC1O)Cn1cnc2cc(Br)c(Cl)cc2c1=O` (stereo not shown) [HF, Halofuginone, reference compound], the “TNT-luciferase LogIC50 (best-fit value)” value [1] was 2.211, the “TNT-luciferase % of control, average” value ([1]; 6 nM) was 106.95 % of control and the “TNT-luciferase % of control” value ([1]; 6 nM, 0.006 µM) was 109.98 % of control and 110.97 % of control and 123.24 % of control and 104.46 % of control and 101.11 % of control and 91.92 % of control. For the same compound, the “TNT-luciferase % of control, average” value ([1]; 10 nM) was 114.54 % of control, the “TNT-luciferase % of control” value ([1]; 10 nM, 0.01 µM) was 118.82 % of control and 112.93 % of control and 98.69 % of control and 124.51 % of control and 116.16 % of control and the “TNT-luciferase % of control, average” value ([1]; 20 nM) was 104.66 % of control. For the same compound, the “TNT-luciferase % of control” value ([1]; 20 nM, 0.02 µM) was 102.13 % of control and 100.65 % of control and 102.62 % of control and 110.31 % of control and 109.47 % of control and 102.79 % of control, the “TNT-luciferase % of control, average” value ([1]; 36 nM) was 110.74 % of control and the “TNT-luciferase % of control” value ([1]; 36 nM, 0.036 µM) was 113.42 % of control and 108.02 % of control and 129.62 % of control and 107.80 % of control and 102.79 % of control. The “TNT-luciferase % of control, average” value ([1]; 60 nM) was 109.84 % of control, the “TNT-luciferase % of control” value ([1]; 60 nM, 0.06 µM) was 112.44 % of control and 104.58 % of control and 103.60 % of control and 118.66 % of control and 113.65 % of control and 106.13 % of control and the “TNT-luciferase % of control, average” value ([1]; 100 nM) was 95.21 % of control. For the same compound, the “TNT-luciferase % of control” value ([1]; 100 nM, 0.1 µM) was 67.76 % of control and 70.21 % of control and 67.27 % of control and 122.01 % of control and 126.18 % of control and 117.83 % of control, the “TNT-luciferase % of control, average” value ([1]; 200 nM) was 33.45 % of control and the “TNT-luciferase % of control, average” value ([1]; 360 nM) was 4.01 % of control. For the same compound, the “TNT-luciferase % of control, average” value ([1]; 600 nM) was 0.26 % of control, the “TNT-luciferase % of control, average” value ([1]; 1000 nM) was 0.09 % of control and the “TNT-luciferase % of control, average” value ([1]; 2000 nM) was 0.02 % of control. For the same compound, the “TNT-luciferase % of control” value ([1]; 2000 nM, 2 µM) was 0.04 % of control, the IC50 ([1]; read-out: TNT-luciferase IC50 (best-fit value)) was 0.163 µM and the “Puromycin, % of control, single replicate” value (from here on “Puromycin, % of control”) (WI‐26 VA4 cells [2]; 3 nM, 0.003 µM) was 87.66 % of control and 110.89 % of control and 102.72 % of control and 101.10 % of control and 86.71 % of control and 84.36 % of control and 98.41 % of control and 95.09 % of control and 95.08 % of control and 108.41 % of control and 105.39 % of control and 104.60 % of control. The “Puromycin, % of control” value (WI‐26 VA4 cells [2]; 10 nM, 0.01 µM) was 100.34 % of control and 96.77 % of control and 97.76 % of control and 87.44 % of control and 83.58 % of control and 96.23 % of control and 94.53 % of control, the “Puromycin, % of control” value (WI‐26 VA4 cells [2]; 30 nM, 0.03 µM) was 113.27 % of control and 109.87 % of control and 110.26 % of control and 116.66 % of control and 114.17 % of control and 107.05 % of control and 108.24 % of control and 108.11 % of control and 111.56 % of control and 111.23 % of control and 110.22 % of control and the “Puromycin, % of control” value (WI‐26 VA4 cells [2]; 100 nM, 0.1 µM) was 90.48 % of control and 92.59 % of control and 92.61 % of control and 84.84 % of control and 84.75 % of control and 85.14 % of control and 85.25 % of control and 85.34 % of control and 84.22 % of control. The “Puromycin, % of control” value (WI‐26 VA4 cells [2]; 300 nM, 0.3 µM) was 10.84 % of control and 35.41 % of control and 34.99 % of control and 10.87 % of control and 10.33 % of control and 31.26 % of control and 32.35 % of control and 31.90 % of control and 32.62 % of control and 32.23 % of control and 32.21 % of control, the “Puromycin, % of control” value (WI‐26 VA4 cells [2]; 3000 nM, 3 µM) was 3.08 % of control (2×) and 2.96 % of control and 3.28 % of control and 2.21 % of control and 2.18 % of control and 2.60 % of control and 2.20 % of control and 3.16 % of control and 3.05 % of control and the “Puromycin, % of control” value (WI‐26 VA4 cells [2]; 10000 nM, 10 µM) was 3.89 % of control and 1.98 % of control and 2.07 % of control and 2.17 % of control and 4.12 % of control and 4.05 % of control and 1.27 % of control and 1.14 % of control and 1.39 % of control and 2.12 % of control and 2.04 % of control. For the same compound, the “Puromycin, % of control” value (WI‐26 VA4 cells [2]; 30000 nM, 30 µM) was 2.04 % of control and 1.64 % of control and 1.93 % of control and 3.75 % of control and 1.32 % of control and 1.84 % of control and 1.82 % of control and 1.41 % of control, the activity at 0.001 µM (WI‐26 VA4 cells [2]; [5]) was 102% and the activity at 0.001 µM (WI‐26 VA4 cells [2]; [6]) was 101%. For the same compound, the activity at 0.003 µM (WI‐26 VA4 cells [2]; Homo sapiens, WI26VA4, 3 nM, read-out: Puromycin, % of control, average) was 98.4%, the activity at 0.01 µM (WI‐26 VA4 cells [2]; [5]) was 94.8% and the activity at 0.01 µM (WI‐26 VA4 cells [2]; [6]) was 86.6%. For the same compound, the activity at 0.03 µM (WI‐26 VA4 cells [2]; [5]) was 111%, the activity at 0.03 µM (WI‐26 VA4 cells [2]; [6]) was 117% and the activity at 0.1 µM (WI‐26 VA4 cells [2]; [5]) was 88%. For the same compound, the activity at 0.1 µM (WI‐26 VA4 cells [2]; [6]) was 94.6%, the activity at 0.3 µM (WI‐26 VA4 cells [2]; Homo sapiens, WI26VA4, 300 nM, read-out: Puromycin, % of control, average) was 26.8% and the activity at 1 µM (WI‐26 VA4 cells [2]; [5]) was 3.03%. The activity at 1 µM (WI‐26 VA4 cells [2]; [6]) was 2.13%, the activity at 3 µM (WI‐26 VA4 cells [2]; [5]) was 2.66% and the activity at 3 µM (WI‐26 VA4 cells [2]; [6]) was 2.13%. For the same compound, the activity at 10 µM (WI‐26 VA4 cells [2]; Homo sapiens, WI26VA4, 10000 nM, read-out: Puromycin, % of control, average) was 2.36%, the activity at 30 µM (WI‐26 VA4 cells [2]; Homo sapiens, WI26VA4, 30000 nM, read-out: Puromycin, % of control, average) was 1.87% and the IC50 (WI‐26 VA4 cells [2]; Homo sapiens, WI26VA4, log(inhibitor) vs. response, variable slope (four parameters), read-out: Puromycin, IC50 (best-fit value)) was 0.2 µM. For the same compound, the “Puromycin, HillSlope (best-fit value)” value (WI‐26 VA4 cells [2]; log(inhibitor) vs. response, variable slope (four parameters)) was -2.795, the “Puromycin, LogIC50 (best-fit value)” value (WI‐26 VA4 cells [2]; log(inhibitor) vs. response, variable slope (four parameters), concentration in nM) was 2.301 and the CC50 at 72 h [3] was 0.051 µM. It also gave an activity at 0.001 µM (WI‐26 VA4 cells [4]; WI26VA4, read-out: CellTiter-Glo % of control, 1 nM, Experiment #1, replicates) of 106%, an activity at 0.01 µM (WI‐26 VA4 cells [4]; Experiment #1, replicates) of 99.6% and an activity at 0.01 µM (WI‐26 VA4 cells [4]; Experiment #2, replicates) of 85.1%. The activity at 0.03 µM (WI‐26 VA4 cells [4]; WI26VA4, read-out: CellTiter-Glo % of control, 30 nM, Experiment #2, replicates) was 74.1%, the activity at 0.1 µM (WI‐26 VA4 cells [4]; Experiment #1, replicates) was 35.7% and the activity at 0.1 µM (WI‐26 VA4 cells [4]; Experiment #2, replicates) was 30%. The activity at 0.3 µM (WI‐26 VA4 cells [4]; WI26VA4, read-out: CellTiter-Glo % of control, 300 nM, Experiment #2, replicates) was 17.6%, the activity at 1 µM (WI‐26 VA4 cells [4]; Experiment #1, replicates) was 17.1% and the activity at 1 µM (WI‐26 VA4 cells [4]; Experiment #2, replicates) was 29.9%. The activity at 3 µM (WI‐26 VA4 cells [4]; WI26VA4, read-out: CellTiter-Glo % of control, 3000 nM, Experiment #2, replicates) was 11%.
